In US3954985A, “Method for inhibiting bacterial growth with certain selected 3-chloro-tetrahydro-1,3-oxazines or oxazolidines” (INTERx Research Corporation, priority 1975, dated 1976):
Where “and” joins values, the source holds several entries; their conditions need not be identical. Equal entries are not always repeated.

Key:
[1] = system: Staph. epidermidis ATCC 12228; assay: Bactericidal endpoint (time for complete sterilization), ATCC 12228; assay type: cell-based
From the text: (§1) The procedure employed to determine the antibacterial activity of 3-chloro-2,2,4,4-tetramethyl-tetrahydro1,3-oxazolidine and 3-chloro-2,2-[spiro-1'-methyl-4'-piperidinyl]-4,4-dimethyl-1,3-oxazolidinewas based primarily on a modification of the serial dilution method of analysis. However, instead of determining the minimum inhibitory concentration parameters for the compound investigated, applicants alternatively chose to determine the bactericidal endpoint for a given concentration of the compound investigated. Consequently, applicants' studies were established to determine the time required for complete sterilization of the micro-organism tested, when exposed to a given concentration of the compound investigated.
(§2) A stock solution of each compound identified above was prepared using an appropriate buffered solution.
(§3) For screening in the absence of a denaturing agent (e.g., horse serum) an equal volume of distilled water and the resulting solution was subjected to the screen.
(§4) For screening in the presence of a denaturing agent, a volume of the stock solution was diluted using an equal volume of 10% horse serum. When necessary, the final solution was adjusted to the desired pH using 1N HCl and the solution was permitted to stand at room temperature for thirty minutes prior to the screening procedure.
(§5) To 5 ml of the stock solution being evaluated, there was added 0.2 ml of an overnight broth culture containing the particular micro-organism being investigated (see above). At time intervals of 0.5, 1, 2, 3, 4, 5, . . . minutes, a loop of this suspension was subcultured into 5 ml of a sterile nutrient broth. All the samples were then incubated at 37°C for seven days with daily observation for evidence of bacterial growth. The time interval reported is for that sample in which no bacterial growth was observed after the incubation period.

E. coli ATCC 10536 = assay: Bactericidal endpoint (time for complete sterilization), ATCC 10536; assay type: cell-based
From the text: as §1, §2, §3, §4, §5

[2] = system: Kleb. pneumoniae ATCC 10031; assay: Bactericidal endpoint (time for complete sterilization), ATCC 10031; assay type: cell-based
From the text: as §1, §2, §3, §4, §5

[3] = system: Pseud. aeruginosa ATCC 9027; assay: Bactericidal endpoint (time for complete sterilization), ATCC 9027; assay type: cell-based
From the text: as §1, §2, §3, §4, §5

Staph. aureus ATCC 6538 = assay: Bactericidal endpoint (time for complete sterilization), ATCC 6538; assay type: cell-based
From the text: as §1, §2, §3, §4, §5

[4] = system: Bord. bronchiseptica ATCC 4617; assay: Bactericidal endpoint (time for complete sterilization), ATCC 4617; assay type: cell-based
From the text: as §1, §2, §3, §4, §5

6501 = assay: Bactericidal endpoint (time for complete sterilization), 6501; assay type: cell-based
From the text: as §1, §2, §3, §4, §5

[5] = Stability in the neat state at 40°C (positive chlorine by thiosulfate titration); assay type: physicochemical
From the text: ^a Weight of sample analyzed.
^b Volume of 10^^-2 N sodium thiosulfate required to titrate
the sample at time (T).
^c Percentage of positive chlorine in the sample analyzed.

[6] = 0.5 M NaH2PO4 pH 7.0, diluent not given, 19.13 × 10^-3 M (6026 ppm)
[7] = 0.5 M NaH2PO4 pH 710 (so in the source), H2O, 19.75 × 10^-3 M (6221 ppm)
[8] = 0.5 M NaOAc pH 4.6, H2O, 17.0 × 10^-3 (5355 ppm)
[9] = 0.5 M NaOAc pH 4.6, Serum, 17.0 × 10^-3 (5355 ppm)

Compound: CN1CCC2(CC1)OCC(C)(C)N2Cl
- Antibacterial activity, time, 12228 [1, 6]: > 10 min
- Antibacterial activity, time, 12228 [1, 7]: 4 min
- Antibacterial activity, time, 12228 [1, 8]: 0.5 min
- Antibacterial activity, time, 12228 [1, 9]: 2 min
- Antibacterial activity, time, 10536 (E. coli ATCC 10536; [6]): 4 min
- Antibacterial activity, time, 10536 (E. coli ATCC 10536; [7]): 1 min
- Antibacterial activity, time, 10536 (E. coli ATCC 10536; [8]): 0.5 min
- Antibacterial activity, time, 10536 (E. coli ATCC 10536; [9]): 0.5 min
- Antibacterial activity, time, 10031 [2, 6]: > 10 min
- Antibacterial activity, time, 10031 [2, 7]: 1 min
- Antibacterial activity, time, 10031 [2, 8]: 0.5 min
- Antibacterial activity, time, 10031 [2, 9]: 1 min
- Antibacterial activity, time, 9027 [3, 6]: > 10 min
- Antibacterial activity, time, 9027 [3, 7]: 1 min
- Antibacterial activity, time, 9027 [3, 8]: 0.5 min
- Antibacterial activity, time, 9027 [3, 9]: 1 min
- Antibacterial activity, time, 6538 (Staph. aureus ATCC 6538; [6]): > 10 min
- Antibacterial activity, time, 6538 (Staph. aureus ATCC 6538; [7]): 4 min
- Antibacterial activity, time, 6538 (Staph. aureus ATCC 6538; [8]): 1 min
- Antibacterial activity, time, 6538 (Staph. aureus ATCC 6538; [9]): 6 min
- Antibacterial activity, time, 4617 [4, 6]: > 10 min
- Antibacterial activity, time, 4617 [4, 7]: 1 min
- Antibacterial activity, time, 4617 [4, 8]: 0.5 min
- Antibacterial activity, time, 4617 [4, 9]: 1 min
- Antibacterial activity, time, 6501 6501; [6]: > 10 min
- Antibacterial activity, time, 6501 6501; [7]: 1 min
- Antibacterial activity, time, 6501 6501; [8]: 0.5 min
- Antibacterial activity, time, 6501 6501; [9]: 1 min
- %Cl (percentage of positive chlorine in the sample analyzed) ([5]; 0 days): 10.6%
- %Cl (percentage of positive chlorine in the sample analyzed) ([5]; 1 day): 10.2% and 10.3%
- %Cl (percentage of positive chlorine in the sample analyzed) ([5]; 2 days): 10.3% and 9.8%
- %Cl (percentage of positive chlorine in the sample analyzed) ([5]; 3 days): 9.8% and 10.0%
- %Cl (percentage of positive chlorine in the sample analyzed) ([5]; 4 days): 9.4%
- %Cl (percentage of positive chlorine in the sample analyzed) ([5]; 5 days): 9.7%
- %Cl (percentage of positive chlorine in the sample analyzed) ([5]; 7 days): 9.3% and 9.7%
- %Cl (percentage of positive chlorine in the sample analyzed) ([5]; 10 days): 9.8%
- %Cl (percentage of positive chlorine in the sample analyzed) ([5]; 14 days): 8.8% and 9.0%
- %Cl (percentage of positive chlorine in the sample analyzed) ([5]; 21 days): 9.4%
- %Cl (percentage of positive chlorine in the sample analyzed) ([5]; 28 days): 9.4% and 9.1%
- %Cl (percentage of positive chlorine in the sample analyzed) ([5]; 35 days): 8.9% and 9.0%
- %Cl (percentage of positive chlorine in the sample analyzed) ([5]; 51 days): 8.0%
